Assay [1] has as its system antibodies in sera from SARS patients (sera 1a, 1b, 2, 6, 37, 62, London, SARS-yellow, SARS-green). Format: binding, human. On the set-up: Binding of serum 6 to linear peptides of protein X1 of SARS-CoV Urbani / Binding of serum 37 to linear peptides of protein X1 of SARS-CoV Urbani / Binding of serum 6 to looped/cyclic peptide (PEPSCAN-ELISA) / Binding of serum 37 to looped/cyclic peptide (PEPSCAN-ELISA) / Binding of serum 37 to looped/cyclic peptides of protein X1 of SARS-CoV Urbani / Binding of serum 6 to linear peptides of protein X2 / Binding of serum 37 to linear peptides of protein X2 / Binding of serum 37 to looped/cyclic peptides of protein X2 of SARS-CoV Urbani / Binding of serum 6 to linear peptides of protein M of SARS-CoV Urbani / Binding of serum 37 to linear peptides of protein M of SARS-CoV Urbani / Binding of serum 6 to looped/cyclic peptides of protein M of SARS-CoV Urbani / Binding of serum 37 to looped/cyclic peptides of protein M of SARS-CoV Urbani / Binding of serum 6 to linear peptides of protein X3 of SARS-CoV Urbani / Binding of serum 37 to linear peptides of protein X3 of SARS-CoV Urbani / Binding of serum 37 to looped/cyclic peptides of protein X3 of SARS-CoV Urbani / Binding of serum 6 to linear peptides of protein X4 of SARS-CoV Urbani / Binding of serum 37 to linear peptides of protein X4 of SARS-CoV Urbani / Binding of serum 37 to looped/cyclic peptides of protein X4 of SARS-CoV Urbani / Binding of serum 6 to linear peptides of protein X5 of SARS-CoV Urbani / Binding of serum 37 to linear peptides of protein X5 of SARS-CoV Urbani / Binding of serum 37 to looped/cyclic peptides of protein X5 of SARS-CoV Urbani / Binding of serum 6 to linear peptides of protein N of SARS-CoV Urbani / Binding of serum 37 to linear peptides of protein N of SARS-CoV Urbani / Binding of serum 6 to linear peptide (PEPSCAN-ELISA) / Binding of serum 1a to looped/cyclic peptides of protein N of SARS-CoV Urbani / Binding of serum 1b to looped/cyclic peptides of protein N of SARS-CoV Urbani / Binding of serum 2 to looped/cyclic peptides of protein N of SARS-CoV Urbani / Binding of serum 6 to looped/cyclic peptides of protein N of SARS-CoV Urbani / Binding of serum 37 to looped/cyclic peptides of protein N of SARS-CoV Urbani / Binding of serum 62 to looped/cyclic peptides of protein N of SARS-CoV Urbani / Binding of serum London to looped/cyclic peptides of protein N of SARS-CoV Urbani / Binding of serum SARS-green to looped/cyclic peptides of protein N of SARS-CoV Urbani: unit not given here.

The test system of assay [2] is control sera (pooled serum of ten healthy LUMC hospital workers; commercial negative donor pooled serum from the Dutch bloodbank). In kind it is binding, human. Set-up: Binding of Control serum LUMC to linear peptides / Binding of Control serum Blood-bank to linear peptides / Binding of Control serum LUMC to looped peptides / Binding of Control Serum Blood-Bank to Looped peptides / Binding of Control serum LUMC to linear peptides of the protein M of SARS-CoV Urbani / Binding of Control serum Blood-bank to linear peptides of the protein M of SARS-CoV Urbani / Binding of Control serum LUMC to looped peptides of the protein M of SARS-CoV Urbani / Binding of Control Serum Blood-Bank to Looped peptides of the protein M of SARS-CoV Urbani: unit not given here.

The subject of assay [3] is rabbit serum obtained by immunizing a rabbit with the SARS-CoV strain Frankfurt 1. In kind it is binding. Set-up: Binding of a rabbit serum to linear peptides / Binding of a rabbit serum to looped peptides / Rabbit serum linear peptides / Rabbit serum looped peptides / Binding of a rabbit serum to linear peptides of protein N of SARS-CoV Urbani (Rabbit serum linear peptides) / Binding of a rabbit serum to looped/cyclic peptides of protein N of SARS-CoV Urbani (Rabbit serum looped peptides): unit not given here.

For the sequence KMLHSSSLTSLLKTH, in assay [1], the “Binding of serum 1a to linear peptides of protein X2” value came to 0.6, the “Binding of serum 1a to looped/cyclic peptides of protein X2 of SARS-CoV Urbani” value came out at 0.3, the “Binding of serum 1b to linear peptides of protein X2” value is recorded as 0.5 and the “Binding of serum 1b to looped/cyclic peptides of protein X2 of SARS-CoV Urbani” value was 0.4. For the same sequence, in assay [1], the “Binding of serum 2 to linear peptides of protein X2” value was found to be 0.5, the “Binding of serum 2 to looped/cyclic peptides of protein X2 of SARS-CoV Urbani” value is given as 0.2, the “Binding of serum 6 to linear peptides of protein X2” value is 0.6 and the “Binding of serum 6 to looped/cyclic peptides of protein X2 of SARS-CoV Urbani” value was 0.2. Moreover, in assay [1], the “Binding of serum 37 to linear peptides of protein X2” value was 0.5, the “Binding of serum 37 to looped/cyclic peptides of protein X2 of SARS-CoV Urbani” value worked out at 0.2, the “Binding of serum 62 to linear peptides of protein X2” value was determined as 0.6 and the “Binding of serum 62 to looped/cyclic peptides of protein X2 of SARS-CoV Urbani” value came out at 0.3. In assay [1], the “Binding of serum London to linear peptides of protein X2” value was 0.9, the “Binding of serum London to looped/cyclic peptides of protein X2 of SARS-CoV Urbani” value is reported as 0.2, the “Binding of serum SARS-green to linear peptides of protein X2” value was 0.6 and the “Binding of serum SARS-green to looped/cyclic peptides of protein X2 of SARS-CoV Urbani” value stood at 0.7. In assay [1], the “Binding of serum SARS-yellow to linear peptides of protein X2” value is 0.4 and the “Binding of serum SARS-yellow to looped/cyclic peptides of protein X2 of SARS-CoV Urbani” value worked out at 0.3. In assay [2], the “Binding of Control Serum Blood-Bank to Looped peptides” value turned out to be 0.3, the “Binding of Control serum Blood-bank to linear peptides” value was 0.7, the “Binding of Control serum LUMC to linear peptides” value is 0.5 and the “Binding of Control serum LUMC to looped peptides” value is listed as 0.4. Moreover, in assay [3], the “Binding of a rabbit serum to linear peptides” value is reported as 0.2 and the “Binding of a rabbit serum to looped peptides” value amounted to 0.2.
For the sequence KRWQLALYKGFQFIC, in assay [1], the “Binding of serum 1a to linear peptides of protein X1 of SARS-CoV Urbani” value worked out at 0.6, the “Binding of serum 1a to looped/cyclic peptide (PEPSCAN-ELISA)” value came out at 0.6, the “Binding of serum 1b to linear peptides of protein X1 of SARS-CoV Urbani” value came out at 0.5 and the “Binding of serum 1b to looped/cyclic peptide (PEPSCAN-ELISA)” value is recorded as 0.4. Also, in assay [1], the “Binding of serum 2 to linear peptides of protein X1 of SARS-CoV Urbani” value came to 0.5, the “Binding of serum 2 to looped/cyclic peptide (PEPSCAN-ELISA)” value stood at 0.5, the “Binding of serum 6 to linear peptides of protein X1 of SARS-CoV Urbani” value is on record as 0.6 and the “Binding of serum 6 to looped/cyclic peptide (PEPSCAN-ELISA)” value amounted to 0.8. In assay [1], the “Binding of serum 37 to linear peptides of protein X1 of SARS-CoV Urbani” value is reported as 0.6, the “Binding of serum 37 to looped/cyclic peptide (PEPSCAN-ELISA)” value is 0.6, the “Binding of serum 62 to linear peptides of protein X1 of SARS-CoV Urbani” value is recorded as 0.5 and the “Binding of serum 62 to looped/cyclic peptide (PEPSCAN-ELISA)” value is 0.6. For the same sequence, in assay [1], the “Binding of serum London to linear peptides of protein X1 of SARS-CoV Urbani” value was 0.2, the “Binding of serum London to looped/cyclic peptide (PEPSCAN-ELISA)” value worked out at 1.1, the “Binding of serum SARS-green to linear peptides of protein X1 of SARS-CoV Urbani” value came to 0.1 and the “Binding of serum SARS-green to looped/cyclic peptide (PEPSCAN-ELISA)” value stood at 0.3. In addition, in assay [1], the “Binding of serum SARS-yellow to linear peptides of protein X1 of SARS-CoV Urbani” value is on record as 0.2 and the “Binding of serum SARS-yellow to looped/cyclic peptide (PEPSCAN-ELISA)” value is 0.5. In assay [2], the “Binding of Control Serum Blood-Bank to Looped peptides” value worked out at 0.7, the “Binding of Control serum Blood-bank to linear peptides” value came out at 0.6, the “Binding of Control serum LUMC to linear peptides” value came to 0.5 and the “Binding of Control serum LUMC to looped peptides” value was determined as 0.7. Moreover, in assay [3], the “Binding of a rabbit serum to linear peptides” value was 0.1 and the “Binding of a rabbit serum to looped peptides” value is given as 0.8.
KSKNPLLYDANYFVC: in assay [1], the “Binding of serum 1a to linear peptides of protein X1 of SARS-CoV Urbani” value turned out to be 0.7, the “Binding of serum 1a to looped/cyclic peptide (PEPSCAN-ELISA)” value came to 0.6, the “Binding of serum 1b to linear peptides of protein X1 of SARS-CoV Urbani” value came out at 0.4 and the “Binding of serum 1b to looped/cyclic peptide (PEPSCAN-ELISA)” value was determined as 0.5. Also, in assay [1], the “Binding of serum 2 to linear peptides of protein X1 of SARS-CoV Urbani” value came to 0.4, the “Binding of serum 2 to looped/cyclic peptide (PEPSCAN-ELISA)” value came to 0.4, the “Binding of serum 6 to linear peptides of protein X1 of SARS-CoV Urbani” value was found to be 0.4 and the “Binding of serum 6 to looped/cyclic peptide (PEPSCAN-ELISA)” value is listed as 0.3. In assay [1], the “Binding of serum 37 to linear peptides of protein X1 of SARS-CoV Urbani” value is reported as 0.5, the “Binding of serum 37 to looped/cyclic peptide (PEPSCAN-ELISA)” value was determined as 0.6, the “Binding of serum 62 to linear peptides of protein X1 of SARS-CoV Urbani” value stood at 0.4 and the “Binding of serum 62 to looped/cyclic peptide (PEPSCAN-ELISA)” value stood at 0.6. Further, in assay [1], the “Binding of serum London to linear peptides of protein X1 of SARS-CoV Urbani” value came out at 0.2, the “Binding of serum London to looped/cyclic peptide (PEPSCAN-ELISA)” value came out at 0.2, the “Binding of serum SARS-green to linear peptides of protein X1 of SARS-CoV Urbani” value amounted to 0.2 and the “Binding of serum SARS-green to looped/cyclic peptide (PEPSCAN-ELISA)” value was 0.4. In assay [1], the “Binding of serum SARS-yellow to linear peptides of protein X1 of SARS-CoV Urbani” value is reported as 0.3 and the “Binding of serum SARS-yellow to looped/cyclic peptide (PEPSCAN-ELISA)” value is 0.4. Also, in assay [2], the “Binding of Control Serum Blood-Bank to Looped peptides” value is given as 0.5, the “Binding of Control serum Blood-bank to linear peptides” value was 0.3, the “Binding of Control serum LUMC to linear peptides” value was found to be 0.7 and the “Binding of Control serum LUMC to looped peptides” value amounted to 0.6. Also, in assay [3], the “Binding of a rabbit serum to linear peptides” value is 0.1 and the “Binding of a rabbit serum to looped peptides” value came out at 0.6.
LAAVYRINWVTGGIA: in assay [1], the “Binding of serum 1a to linear peptides of protein M of SARS-CoV Urbani” value amounted to 0.7, the “Binding of serum 1a to looped/cyclic peptides of protein M of SARS-CoV Urbani” value was 0.8, the “Binding of serum 1b to linear peptides of protein M of SARS-CoV Urbani” value is on record as 0.5 and the “Binding of serum 1b to looped/cyclic peptides of protein M of SARS-CoV Urbani” value worked out at 0.2. Further, in assay [1], the “Binding of serum 2 to linear peptides of protein M of SARS-CoV Urbani” value was 0.6, the “Binding of serum 2 to looped/cyclic peptides of protein M of SARS-CoV Urbani” value came out at 0.5, the “Binding of serum 6 to linear peptides of protein M of SARS-CoV Urbani” value turned out to be 0.3 and the “Binding of serum 6 to looped/cyclic peptides of protein M of SARS-CoV Urbani” value turned out to be 0.7. In assay [1], the “Binding of serum 37 to linear peptides of protein M of SARS-CoV Urbani” value is reported as 0.8, the “Binding of serum 37 to looped/cyclic peptides of protein M of SARS-CoV Urbani” value is listed as 0.5, the “Binding of serum 62 to linear peptides of protein M of SARS-CoV Urbani” value came out at 0.9 and the “Binding of serum 62 to looped/cyclic peptides of protein M of SARS-CoV Urbani” value was determined as 0.5. Also, in assay [1], the “Binding of serum London to linear peptides of protein M of SARS-CoV Urbani” value was determined as 0.3, the “Binding of serum London to looped/cyclic peptides of protein M of SARS-CoV Urbani” value came out at 0.2, the “Binding of serum SARS-green to linear peptides of protein M of SARS-CoV Urbani” value worked out at 0.3 and the “Binding of serum SARS-green to looped/cyclic peptides of protein M of SARS-CoV Urbani” value amounted to 0.3. In assay [1], the “Binding of serum SARS-yellow to linear peptides of protein M of SARS-CoV Urbani” value turned out to be 0.1 and the “Binding of serum SARS-yellow to looped/cyclic peptides of protein M of SARS-CoV Urbani” value was 0.3. In assay [2], the “Binding of Control Serum Blood-Bank to Looped peptides of the protein M of SARS-CoV Urbani” value is 0.4, the “Binding of Control serum Blood-bank to linear peptides of the protein M of SARS-CoV Urbani” value is given as 0.6, the “Binding of Control serum LUMC to linear peptides of the protein M of SARS-CoV Urbani” value is given as 0.5 and the “Binding of Control serum LUMC to looped peptides of the protein M of SARS-CoV Urbani” value was 0.6. For the same sequence, in assay [3], the “Rabbit serum linear peptides” value is reported as 0.4 and the “Rabbit serum looped peptides” value amounted to 0.0.

These data come from US20070128217A1 (priority 2003, published 2007).
